Some results are limits rather than exact numbers.

One may read the IC50 as the midpoint of a concentration-inhibition curve. Read a low IC50 as higher potency.

The subject of assay [1] is Colo 320 multidrug resistant human colonic adenocarcinoma cell line. The experiment in a line: MTT cytotoxicity assay, Colo 320. It is filed as cell-based. As to conditions: for IC50: 72 h, MTT; for S.I. MRC-5/Colo 320: ratio of the indicated IC50 values. The method, then: (§1) Human colonic adenocarcinoma cell lines Colo 205 doxorubicin-sensitive (ATCC-CCL-222) and Colo 320/MDR-LRP multidrug resistant expressing ABCB1 (MDR1)-LRP (ATCC-CCL-220.1) were purchased from LGC Promochem (Teddington, UK). […] Cell lines were incubated at 37 °C, in a 5% CO2, 95% air atmosphere. The semi-adherent human colon cancer cells were detached with Trypsin-Versene (EDTA, Sigma, Steinheim, Germany) solution for 5 min at 37 °C. MRC-5 human embryonal lung fibroblast cell lines (ATCC CCL-171) were purchased from LGC Promochem. […] The cell lines were incubated at 37 °C, in a 5% CO2, 95% air atmosphere.
(§2) In the study MRC-5 non-cancerous human embryonic lung fibroblast and human colonic adenocarcinoma cell lines (doxorubicin-sensitive Colo 205 and multidrug resistant Colo 320 colonic adenocarcinoma cells) were used to determine the effect of compounds on cell growth. The effects of increasing concentrations of compounds on cell growth were tested in 96-well flat-bottomed microtiter plates. The stock solutions of the compounds were prepared in DMSO, and in the final samples the DMSO content was always lower than 1%. The compounds were diluted in a volume of 100 μL of medium.
(§3) In case of the colonic adenocarcinoma cells, the two-fold serial dilutions of compounds were prepared in 100 μL of RPMI 1640, horizontally. The semi-adherent colonic adenocarcinoma cells were treated with Trypsin-Versene (EDTA) solution. They were adjusted to a density of 1 × 10^4 cells in 100 μL of RPMI 1640 medium, and were added to each well, with the exception of the medium control wells. The final volume of the wells containing compounds and cells was 200 μL.
(§4) The culture plates were incubated at 37 °C for 72 h; at the end of the incubation period, 20 μL of MTT (Sigma) solution (from a stock solution of 5 mg/mL) were added to each well. After incubation at 37 °C for 4 h, 100 μL of sodium dodecyl sulfate (SDS) (Sigma) solution (10% in 0.01 M HCl) were added to each well and the plates were further incubated at 37 °C overnight. Cell growth was determined by measuring the optical density (OD) at 540/630 nm with Multiscan EX ELISA reader (Thermo Labsystems, Cheshire, WA, USA). […] Curves were fitted by Prism software (GraphPad Software Inc., San Diego, CA, USA) using the sigmoidal dose-response model (comparing variable and fixed slopes). The IC50 values were obtained from at least 3 independent experiments.
Background: Formazan colour is commonly taken as a measure of viable cells.

Assay [2] concerns Escherichia coli K-12 AG100. The experiment in a line: MIC determination (CLSI broth microdilution). It is filed as cell-based. Particulars: Gram-negative, AG100, 18 h. The method, then:
(§5) Wild-type Escherichia coli K-12 AG100 strain [argE3 thi-1 rpsL xyl mtl Δ(gal-uvrB) supE44] expressing the AcrAB TolC EP at its basal level and Klebsiella pneumoniae ATCC 49,619 Gram-negative strains were studied in the experiments. Staphylococcus aureus ATCC 43,300 methicillin-resistant (MRSA) strain and Enterococcus faecalis ATCC 29,212 strain were used as Gram-positive strains in the assays. MIC values of the complexes were determined in 96-well plates based on the Clinical and Laboratory Standard Institute guidelines (CLSI guidelines). The stock solutions of the compounds (dissolved in DMSO using 10 mM concentration) were diluted in 100 μL of Mueller Hinton Broth. Then 10^−4 dilution of an overnight bacterial culture in 100 μL of medium was added to each well, with the exception of the medium control wells.

Assay [3] concerns Klebsiella pneumoniae ATCC 49619. The assay can be described thus: MIC determination (CLSI broth microdilution). Type of assay: cell-based. Particulars: Gram-negative, ATCC 49619, 18 h. The procedure:
as §5
(Broth dilution looks for growth in wells or tubes with falling amounts of substance.)

Assay [4] relates to Staphylococcus aureus ATCC 43300 methicillin-resistant (MRSA). The experiment in a line: MIC determination (CLSI broth microdilution). It is filed as cell-based. As to conditions: Gram-positive, MRSA ATCC 43300, 18 h. The procedure:
as §5

Assay [5] concerns Enterococcus faecalis ATCC 29212. The experiment in a line: MIC determination (CLSI broth microdilution). Type of assay: cell-based. As to conditions: Gram-positive, ATCC 29212, 18 h. The procedure:
as §5

For assay [6], the system named is Colo 205 chemo-sensitive human colonic adenocarcinoma cell line. The experiment in a line: MTT cytotoxicity assay, Colo 205. Type of assay: cell-based. Particulars: for IC50: 72 h, MTT; for S.I. MRC-5/Colo 205: ratio of the indicated IC50 values. The procedure: as §1, §2, §3, §4
Assay [7] addresses T1, Human serum albumin (HSA) (Homo sapiens, UniProt P02768).
T1 construct: purchased Sigma-Aldrich A8763
The experiment in a line: HSA binding by spectrofluorometry (Trp-214 quenching, site marker displacement). Particulars: pH 7.40 PBS’, 25 °C; for logKWF’ (warfarin displacement): site I marker; for logKDG’ (dansyl glycine displacement): site II marker. The method, then: Steady-state spectrofluorometric measurements were also performed to assay the binding interactions at the binding pockets of HSA located in the IIA and IIIA subdomains. His residues are found nearby at both binding sites, and covalent binding is possible here. Trp-214 quenching and site marker displacement experiments were conducted as reported in our former works. Warfarin (WF) was applied as site I marker and dansyl glycine (DG) was used for site II. Representative emission spectra for Trp-214 quenching in case of 1 are shown in Figure 8a, and changes in the intensities at the emission maximum are compared for 1–4 in Figure 8b. Based on the spectral changes conditional binding constants were computed for both of the quenching and site marker displacement assays (Table 5).
Complex 2 is hardly bound at site I, while binding of 3 and 1 is considered as a strong interaction here.
Fluorescence studies were performed using a Fluoromax (Horiba Jobin Yvon, Kyoto, Japan) fluorometer in 1 × 1 cm quartz cells. All samples contained 1 μM HSA and various HSA-to-metal complex ratios (up to complex:HSA = 1:40) were used. Site marker displacement experiments were also carried out, and in the samples the HSA-to-site marker (WF or DG) ratio was 1:1 and the concentration of the complex compounds was varied. For the Trp quenching, the WF and DG displacement experiments λEX = 295, 310 and 335 nm was applied and emission spectra were recorded spectra in the wavelength range 310–450, 320–500 and 420–600 nm, respectively. Computer program HypSpec was utilized for calculation of binding constants (K’) for HSA–metal complex adducts similar to the approach described in our former works. Calculations were always based on data obtained from at least two independent measurements.

T1 sequence (P02768 25-609): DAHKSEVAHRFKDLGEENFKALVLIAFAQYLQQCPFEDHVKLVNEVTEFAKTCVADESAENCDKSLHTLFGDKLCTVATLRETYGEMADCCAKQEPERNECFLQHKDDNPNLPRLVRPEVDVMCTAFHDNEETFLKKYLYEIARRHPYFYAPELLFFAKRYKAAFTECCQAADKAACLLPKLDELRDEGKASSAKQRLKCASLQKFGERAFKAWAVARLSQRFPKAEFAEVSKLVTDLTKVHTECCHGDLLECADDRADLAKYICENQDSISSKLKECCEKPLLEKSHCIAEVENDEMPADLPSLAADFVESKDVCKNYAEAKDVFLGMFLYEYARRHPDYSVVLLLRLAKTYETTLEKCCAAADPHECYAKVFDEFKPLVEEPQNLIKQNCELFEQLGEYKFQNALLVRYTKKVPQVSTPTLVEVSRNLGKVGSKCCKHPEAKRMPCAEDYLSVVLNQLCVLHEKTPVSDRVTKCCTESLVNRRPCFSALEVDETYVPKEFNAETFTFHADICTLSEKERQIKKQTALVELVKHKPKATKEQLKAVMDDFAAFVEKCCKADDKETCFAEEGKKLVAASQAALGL

On to `Cc1ccc(C(C)C)cc1.[Cl-].[O-]n1ccccc1=S.[Ru+2]` [complex 1], for which, in assay [1], the IC50 came out at 3.3 ± 1.3 µM and the “S.I. MRC-5/Colo 320” value was 0.66. In addition, in assay [2], the “MIC E. coli” value is over 100 µM. Besides, the “MIC K. pneumoniae” value in assay [3] was over 100 µM. Further, the “MIC S. aureus” value in assay [4] is 50 µM. For the same compound, the “MIC E. faecalis” value in assay [5] was 100 µM. In assay [6], the midpoint of inhibition, the IC50, lay at 14 ± 0.62 µM and the “S.I. MRC-5/Colo 205” value is 0.15. Further, in assay [7], the “logKWF’ (warfarin displacement)” value was determined as 6.16 ± 0.03 and the “logKDG’ (dansyl glycine displacement)” value came out at 5.80 ± 0.03. In assay [7] (titration, site I), the “logKQ’ (Trp-214 quenching)” value came out at 5.81 ± 0.03.

Turning to `C1N2CN3CN1CP(C2)C3.Cc1ccc(C(C)C)cc1.F[P-](F)(F)(F)(F)F.[O-]n1ccccc1=S.[Ru+2]` [complex 2], the half-inhibitory concentration (IC50) in assay [1] and in assay [6] was over 100 µM each time. Besides, the “MIC E. coli” value in assay [2] is over 100 µM. The “MIC K. pneumoniae” value in assay [3] was over 100 µM. Moreover, in assay [4], the “MIC S. aureus” value was over 100 µM. For the same compound, in assay [5], the “MIC E. faecalis” value is over 100 µM. Also, in assay [7] (titration, site I), the “logKQ’ (Trp-214 quenching)” value was under 4.

Consider `Cc1ccc(C(C)C)cc1.[Cl-].[O-]n1ccc2ccccc2c1=S.[Ru+2]` [complex 3], for which, in assay [1], half-maximal inhibition (IC50) required 10.7 ± 1.5 µM and the “S.I. MRC-5/Colo 320” value came to 0.71. Besides, the “MIC E. coli” value in assay [2] was over 100 µM. Besides, the “MIC K. pneumoniae” value in assay [3] is over 100 µM. In addition, in assay [4], the “MIC S. aureus” value was 12.5 µM. For the same compound, the “MIC E. faecalis” value in assay [5] was 12.5 µM. Further, in assay [6], the concentration for half-maximal inhibition (IC50) worked out at 17.3 ± 3.1 µM and the “S.I. MRC-5/Colo 205” value is on record as 0.44. Besides, in assay [7], the “logKWF’ (warfarin displacement)” value was 5.98 ± 0.03 and the “logKDG’ (dansyl glycine displacement)” value amounted to 5.61 ± 0.03. Besides, the “logKQ’ (Trp-214 quenching)” value in assay [7] (titration, site I) came to 6.18 ± 0.03.

As for `C1N2CN3CN1CP(C2)C3.Cc1ccc(C(C)C)cc1.F[P-](F)(F)(F)(F)F.[O-]n1ccc2ccccc2c1=S.[Ru+2]` [complex 4], in assay [1], the half-maximal inhibitory concentration (IC50) was over 100 µM and the “S.I. MRC-5/Colo 320” value is under 0.81. Moreover, the “MIC E. coli” value in assay [2] was over 100 µM. The “MIC K. pneumoniae” value in assay [3] was over 100 µM. In addition, in assay [4], the “MIC S. aureus” value is over 100 µM. Moreover, the “MIC E. faecalis” value in assay [5] was over 100 µM. Besides, in assay [6], the half-inhibitory concentration (IC50) is over 100 µM and the “S.I. MRC-5/Colo 205” value is listed as under 0.81. For the same compound, the “logKQ’ (Trp-214 quenching)” value in assay [7] (batch, 48 h equilibration) is 5.39 ± 0.03. Further, the “logKQ’ (Trp-214 quenching)” value in assay [7] (titration, site I) is 4.46 ± 0.03.

On to `Cc1ccc(C(C)C)cc1.O=C(C=C([O-])C(F)(F)F)c1ccc(Cl)cc1.[Cl-].[Ru+2]` [complex 7], for which, in assay [1], the 50% inhibitory concentration (IC50) turned out to be 29.1 ± 2 µM and the “S.I. MRC-5/Colo 320” value is 0.91. Besides, in assay [2], the “MIC E. coli” value was over 100 µM. Besides, the “MIC K. pneumoniae” value in assay [3] is over 100 µM. Also, in assay [4], the “MIC S. aureus” value was 50 µM. Besides, the “MIC E. faecalis” value in assay [5] is 50 µM. For the same compound, in assay [6], the IC50 turned out to be 52.4 ± 2.7 µM and the “S.I. MRC-5/Colo 205” value is recorded as 0.51.

Turning to `C1N2CN3CN1CP(C2)C3.Cc1ccc(C(C)C)cc1.F[P-](F)(F)(F)(F)F.O=C(C=C([O-])C(F)(F)F)c1ccc(Cl)cc1.[Ru+2]` [complex 8], in assay [1], the half-inhibitory concentration (IC50) was found to be 47.8 ± 7.3 µM and the “S.I. MRC-5/Colo 320” value was determined as 0.37. Moreover, the “MIC E. coli” value in assay [2] was over 100 µM. Besides, the “MIC K. pneumoniae” value in assay [3] was over 100 µM. Besides, the “MIC S. aureus” value in assay [4] is 50 µM. Further, in assay [5], the “MIC E. faecalis” value was found to be 100 µM. Also, in assay [6], the IC50 worked out at 80.6 ± 1.1 µM and the “S.I. MRC-5/Colo 205” value stood at 0.22.

These data come from article PMC8226722, “Comparison of Solution Chemical Properties and Biological Activity of Ruthenium Complexes of Selected β-Diketone, 8-Hydroxyquinoline and Pyrithione Ligands” (Pharmaceuticals, 2021).
